Data as given in patent US11203610B2, “2′3′ cyclic dinucleotides with phosphonate bond activating the sting adaptor protein” (INSTITUTE OF ORGANIC CHEMISTRY AND BIOCHEMISTRY ASCR, V.V.I., priority 2017, dated 2021).

Columns and labels:
WT STING [1] = molecular target: T1, WT STING (Homo sapiens, UniProt Q86WV6, H232R); assay: Differential Scanning Fluorimetry with WT STING; assay type: binding; design: truncated human WT STING or AQ STING (amino acid residues 140-343); 8xHis (N, cleaved yes); SUMO (N, cleaved yes); made in house; host or cells: E. coli Rosetta-gami B (DE3); conditions: thermal shift vs STING apoprotein; 150 μM CDN; 0.1 mg/ml truncated human WT STING; SYPRO Orange; read-out: DSF ΔTm (° C.) WT STING
Target sequence in this assay (Q86WV6 140-343 H232R): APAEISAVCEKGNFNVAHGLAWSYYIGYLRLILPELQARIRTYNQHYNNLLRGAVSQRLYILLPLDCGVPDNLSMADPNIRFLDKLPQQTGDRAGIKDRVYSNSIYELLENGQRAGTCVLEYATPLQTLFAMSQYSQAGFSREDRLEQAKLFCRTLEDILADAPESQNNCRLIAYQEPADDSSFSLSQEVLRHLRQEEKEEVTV

AQ STING (G230A-R293Q) = molecular target: T2, AQ STING (G230A-R293Q) (Homo sapiens, UniProt Q86WV6, G230A/H232R/R293Q); assay: Differential Scanning Fluorimetry with AQ STING; assay type: binding; conditions: thermal shift vs STING apoprotein; 150 μM CDN; 0.1 mg/ml truncated human AQ STING; SYPRO Orange; read-out: DSF ΔTm (° C.) AQ STING
T2 construct: truncated human WT STING or AQ STING (amino acid residues 140-343); 8xHis (N, cleaved yes); SUMO (N, cleaved yes); made in house; host or cells: E. coli Rosetta-gami B (DE3)

WT STING [2] = molecular target: T1, WT STING; assay: Digitonin assay using 293T wtSTING-FL reporter cells; assay type: cell-based; conditions: 293T wtSTING-FL cells; 30 minutes in Digitonin buffer, then 5 hours; ISRE firefly luciferase reporter; 8-point dose-response curve; read-out: Digitonin assay EC50 (μmol · l^−1) WT STING
Target sequence in this assay (Q86WV6 whole entry H232R, the tested form may be a part): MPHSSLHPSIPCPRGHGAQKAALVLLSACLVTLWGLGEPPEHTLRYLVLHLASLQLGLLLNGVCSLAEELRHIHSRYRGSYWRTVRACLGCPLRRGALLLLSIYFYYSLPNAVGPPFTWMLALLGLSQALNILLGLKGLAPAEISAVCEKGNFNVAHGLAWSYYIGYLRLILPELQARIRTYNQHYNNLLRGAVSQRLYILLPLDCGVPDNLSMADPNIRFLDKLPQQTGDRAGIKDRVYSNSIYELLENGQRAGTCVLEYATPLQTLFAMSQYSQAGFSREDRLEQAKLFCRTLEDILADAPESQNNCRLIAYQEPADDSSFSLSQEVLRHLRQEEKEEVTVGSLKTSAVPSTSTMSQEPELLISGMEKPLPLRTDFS

T2 sequence (Q86WV6 140-343 G230A/H232R/R293Q): as the sequence (Q86WV6 140-343 H232R) above, with G91A, R154Q counted along it

| ΔTm at 150 µM (WT STING [1]) | ΔTm at 150 µM (AQ STING (G230A-R293Q)) | EC50 (WT STING [2]) | Structure (SMILES) |
| --- | --- | --- | --- |
| 18.1 °C | 24 °C | 12 nM | Nc1nc2c(ncn2[C@@H]2O[C@@H]3OCP(=O)(O)O[C@H]4[C@@H](O)[C@H](n5cnc6c(N)ncnc65)O[C@@H]4COP(=O)(O)O[C@@H]2[C@@H]3F)c(=O)[nH]1 [Compound 60, (1S,6R,8R,9R,10S,15R,17R,18S)-17-(2-amino-6-oxo-6,9-dihydro-1H-purin-9-yl)-8-(6-amino-9H-purin-9-yl)-18-fluoro-3,9,12-trihydroxy-2,4,7,11,14,16-hexaoxa-3λ^5,12λ^5-diphosphatricyclo[13.2.1.0^6,10]octadecane-3,12-dione] |
| 10 °C | 17.6 °C | 27 nM | Nc1nc2c(nnn2[C@@H]2O[C@@H]3OCP(=O)(O)O[C@@H]4[C@@H](OCP(=O)(O)O[C@@H]2[C@@H]3O)O[C@@H](n2cnc3c(N)ncnc32)[C@@H]4O)c(=O)[nH]1 [Compound 61, (1R,6R,8R,9R,10S,15R,17R,18S)-17-{5-amino-7-oxo-3H,6H,7H-[1,2,3]triazolo[4,5-d]pyrimidin-3-yl}-8-(6-amino-9H-purin-9-yl)-3,9,12,18-tetrahydroxy-2,5,7,11,14,16-hexaoxa-3λ^5,12λ^5-diphosphatricyclo[13.2.1.0^6,10]octadecane-3,12-dione] |
| 16 °C | 22.9 °C | 50 nM | Nc1nc2c(nnn2[C@@H]2O[C@@H]3OCP(=O)(O)O[C@H]4[C@H](O)[C@H](n5cnc6c(N)ncnc65)O[C@@H]4COP(=O)(O)O[C@@H]2[C@@H]3O)c(=O)[nH]1 [Compound 62, (1R,6R,8R,9S,10S,15R,17R,18S)-17-{5-amino-7-oxo-3H,6H,7H-[1,2,3]triazolo[4,5-d]pyrimidin-3-yl}-8-(6-amino-9H-purin-9-yl)-3,9,12,18-tetrahydroxy-2,4,7,11,14,16-hexaoxa-3λ^5,12λ^5-diphosphatricyclo[13.2.1.0^6,10]octadecane-3,12-dione] |
| 19.5 °C | 26.4 °C | 8 nM | Nc1nc2c(nnn2[C@@H]2O[C@@H]3OCP(=O)(O)OC4C(F)[C@H](n5cnc6c(N)ncnc65)O[C@@H]4COP(=O)(O)OC2C3O)c(=O)[nH]1 (stereo partly drawn) [Compound 63, (6R,8R,15R,17R)-17-{5-amino-7-oxo-3H,6H,7H-[1,2,3]triazolo[4,5-d]pyrimidin-3-yl}-8-(6-amino-9H-purin-9-yl)-9-fluoro-3,12,18-trihydroxy-2,4,7,11,14,16-hexaoxa-3λ^5,12λ^5-diphosphatricyclo[13.2.1.0^6,10]octadecane-3,12-dione] |
